Literature values, collected in US6803057B2, “Hydrogen peroxide disinfectant with increased activity” (Virox Technologies Inc., priority 1998, dated 2004).
Like-named read-outs stand apart in the source and are kept apart here.

Legend:
[1] = test system: Salmonella typhimurium and Listeria monocytogenes

Structure (SMILES)	time required to disinfect surfaces contaminated with staphylococcus aureus (staphylococcus aureus; 0.1 wt./wt. % aqueous solution) [min]	time required to disinfect surfaces contaminated with staphylococcus aureus (staphylococcus aureus; 25.8 wt./wt. % aqueous solution) [min]	corrosivity / irritancy (1-3 wt./wt. % aqueous solution)	corrosivity / irritancy (3-7 wt./wt. % aqueous solution)	corrosivity / irritancy (above about 8 wt./wt. % aqueous solution)	concentration effective in sanitizing [1] [ppm]
OO [hydrogen peroxide]	60	0.333	non-corrosive and non-irritating	non-corrosive but an eye irritant	corrosive	
CCCCCCCCCCCCc1ccc(S(=O)(=O)O)cc1 [DDBSA, dodecyl benzene sulfonic acid]						≥ 200
